# Measured values taken from patent US20260008768A1, “UREA DERIVATIVES FOR INHIBITING NLRP3 AND USES THEREOF” (VENTUS THERAPEUTICS U.S., INC., priority 2023, published 2026).
# Target: human NLRP3 (Homo sapiens, UniProt Q96P20)
# Assay: Scintillation Proximity (SPA) NLRP3 Assay, displacement of 3H-MCC950
# Type: binding
# Conditions: Table B, activity class; displacement of 3H-MCC950 from human NLRP3
# Protocol: Improved NLRP3 binding correlates with increased affinity for NLRP3 protein and, by extension, increased ability to interfere with its function.
# SPA experiments were conducted in a total volume of 20 μL assay buffer containing 20 mM HEPES pH 7.5, 150 mM NaCl, 5 mM MgCl2, 0.01% (v/v) Tween-20, 0.01% (w/v) bovine serum albumin (BSA) and 100 μM of adenosine diphosphate (ADP). A human NLRP3 protein (350 nM) (see, e.g., Sharif et al., Nature (2019) 570:338-343; Hochheiser et al., Nature (2022) 604:184-189; Adreeva et al., Cell (2021) 184:6299-6312; Wang et al., J Exp. Med. (2021) 219:e20211147) was incubated with various concentration of compounds in 5% dimethyl sulfoxide (DMSO) final for 15 minutes at room temperature in a white half-area 96 well OptiPlate (PerkinElmer #6002290) before adding 125 nM final of 3H-MCC950. After the addition of radiolabeled MCC950, the plate was incubated for 60 minutes at room temperature before adding 0.25 mg/ml of copper-coated polyvinyltoluene SPA beads (PerkinElmer #RPNQ0095). The plate was then transferred to a microplate counter (PerkinElmer 2450 Microbeta) to collect binding data. Binding data was analyzed 6 hrs post-PVT bead addition to allow sufficient time to reach equilibrium. Specific binding was calculated from averaged duplicates by subtracting signal from wells without NLRP3 protein.
# SPA NLRP3 IC50 assay results are provided in Table B. “A” activity=<1 uM; “B” activity=1-10 uM; “C” activity=>10-50 uM; “D” activity=>50 uM-100 uM; and “E” activity=>100 uM.
# Sequence of human NLRP3 (Q96P20 whole entry): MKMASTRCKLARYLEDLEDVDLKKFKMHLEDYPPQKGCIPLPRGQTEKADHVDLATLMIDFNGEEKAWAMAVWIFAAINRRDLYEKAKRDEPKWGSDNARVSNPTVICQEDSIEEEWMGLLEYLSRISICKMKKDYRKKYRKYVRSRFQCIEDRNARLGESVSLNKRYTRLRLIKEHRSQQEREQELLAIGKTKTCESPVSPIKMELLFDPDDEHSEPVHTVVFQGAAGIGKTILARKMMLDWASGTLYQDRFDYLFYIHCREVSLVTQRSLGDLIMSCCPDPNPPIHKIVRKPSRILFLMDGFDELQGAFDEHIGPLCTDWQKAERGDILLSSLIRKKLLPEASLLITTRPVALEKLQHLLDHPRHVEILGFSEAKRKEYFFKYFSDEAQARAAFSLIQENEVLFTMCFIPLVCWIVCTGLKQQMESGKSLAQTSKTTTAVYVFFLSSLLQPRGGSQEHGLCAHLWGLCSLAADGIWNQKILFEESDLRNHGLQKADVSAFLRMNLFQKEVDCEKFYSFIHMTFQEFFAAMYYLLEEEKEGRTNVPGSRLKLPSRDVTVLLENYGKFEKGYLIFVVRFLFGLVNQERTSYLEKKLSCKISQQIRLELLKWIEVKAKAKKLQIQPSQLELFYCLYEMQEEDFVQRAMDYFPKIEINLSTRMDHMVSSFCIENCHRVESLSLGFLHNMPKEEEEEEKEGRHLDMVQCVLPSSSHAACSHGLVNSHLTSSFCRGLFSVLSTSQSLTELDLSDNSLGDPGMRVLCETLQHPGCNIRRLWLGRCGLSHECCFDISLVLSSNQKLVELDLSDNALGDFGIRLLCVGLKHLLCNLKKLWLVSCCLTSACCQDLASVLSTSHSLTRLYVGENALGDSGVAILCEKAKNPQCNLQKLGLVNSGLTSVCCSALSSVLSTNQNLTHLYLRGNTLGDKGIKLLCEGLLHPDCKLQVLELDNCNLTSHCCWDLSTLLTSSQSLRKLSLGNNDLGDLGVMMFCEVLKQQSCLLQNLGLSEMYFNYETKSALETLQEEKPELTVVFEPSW
row,SMILES,IC50 [µM]
1,"C[C@H]1CCN(c2nnn[nH]2)C[C@H](NC(=O)N(C)c2ncc(C(F)(F)F)cn2)C1 (single isomer, unassigned) [30C*]",> 100
2,"C[C@@H]1CCN(c2nnn[nH]2)C[C@@H](NC(=O)Nc2ccc(Cl)cc2F)C1 (single isomer, unassigned) [27B*]",1 to 10
3,"C[C@H]1C[C@H](NC(=O)N(C)c2ccc(OC(F)F)c(F)c2F)[C@@H]2CC[C@H]1N2c1nnn[nH]1 (single isomer, unassigned) [58D*]",10 to 50
4,"C[C@H]1C[C@H](NC(=O)N(C)c2ccc(Cl)c(F)c2)[C@@H]2CC[C@H]1N2c1nnn[nH]1 (single isomer, unassigned) [50D*]",10 to 50
5,"C[C@H]1C[C@@H](NC(=O)N(C)c2ccc(OC(F)F)cc2F)[C@@H]2CC[C@H]1N2c1nnn[nH]1 (single isomer, unassigned) [57C*]",50 to 100
6,"C[C@H]1C[C@@H](NC(=O)N(C)c2ccc(C(F)F)cc2F)[C@@H]2CC[C@H]1N2c1nnn[nH]1 (single isomer, unassigned) [55C*]",50 to 100
7,"C[C@H]1C[C@@H](NC(=O)N(C)c2ccc(OC(F)F)cc2)[C@@H]2CC[C@H]1N2c1nnn[nH]1 (single isomer, unassigned) [42C*]",> 100
8,"C[C@H]1C[C@@H](NC(=O)N(C)c2ccc(C(F)(F)F)cc2F)[C@@H]2CC[C@H]1N2c1nnn[nH]1 (single isomer, unassigned) [48C*]",50 to 100
9,"C[C@@H]1C[C@H](NC(=O)N(C)c2ccc(OC(F)(F)F)cc2)[C@H]2CC[C@@H]1N2c1nnn[nH]1 (single isomer, unassigned) [45B*]",10 to 50
10,"C[C@H]1CCN(c2nnn[nH]2)C[C@H](NC(=O)N(C)c2ccc(Cl)c(F)c2)C1 (single isomer, unassigned) [12C*]",10 to 50
11,"C[C@H]1C[C@H](NC(=O)N(C)c2ccc(OC(F)(F)F)c(F)c2)[C@@H]2CC[C@H]1N2c1nnn[nH]1 (single isomer, unassigned) [51D*]",10 to 50
12,"C[C@@H]1C[C@H](NC(=O)N(C)c2ccc(OC(F)F)cc2)[C@H]2CC[C@@H]1N2c1nnn[nH]1 (single isomer, unassigned) [42B*]",10 to 50
13,"C[C@H]1CCN(c2nnn[nH]2)C[C@@H](NC(=O)N(C)c2ccc(Cl)cn2)C1 (single isomer, unassigned) [28D*]",10 to 50
14,"C[C@H]1C[C@H](NC(=O)N(C)c2ccc(C(F)(F)F)c(F)c2)[C@@H]2CC[C@H]1N2c1nnn[nH]1 (single isomer, unassigned) [49D*]",50 to 100
15,"C[C@H]1CCN(c2nnn[nH]2)C[C@H](NC(=O)N(C)c2ccc(Cl)cc2Cl)C1 (single isomer, unassigned) [7C*]",50 to 100
16,"C[C@H]1CCN(c2nnn[nH]2)C[C@@H](NC(=O)N(C)c2ccc(C(F)(F)F)nn2)C1 (single isomer, unassigned) [33D*]",50 to 100
17,"C[C@@H]1CCN(c2nnn[nH]2)C[C@@H](NC(=O)N(C)c2ccc(C(F)F)c(F)c2)C1 (single isomer, unassigned) [22B*]",1 to 10
18,"C[C@@H]1C[C@H](NC(=O)N(C)c2ccc(C3CC3)c(F)c2)[C@H]2CC[C@@H]1N2c1nnn[nH]1 (single isomer, unassigned) [54B*]",> 100
19,"C[C@H]1CCN(c2nnn[nH]2)C[C@@H](NC(=O)N(C)c2cnc(C(F)(F)F)nc2)C1 (single isomer, unassigned) [31D*]",10 to 50
20,"C[C@@H]1CCN(c2nnn[nH]2)C[C@H](NC(=O)N(C)c2cnc(C(F)(F)F)nc2)C1 (single isomer, unassigned) [31A*]",10 to 50
21,"C[C@H]1C[C@H](NC(=O)N(C)c2c(F)cc(OC(F)F)cc2F)[C@@H]2CC[C@H]1N2c1nnn[nH]1 (single isomer, unassigned) [61D*]",10 to 50

row,SMILES,IC50 [µM]
1,"C[C@H]1CCN(c2nnn[nH]2)C[C@@H](NC(=O)N(C)c2ccc(OC(F)F)c(F)c2)C1 (single isomer, unassigned) [15D*]",1 to 10
2,"C[C@H]1C[C@@H](NC(=O)N(C)c2ccc(C(F)(F)F)c(F)c2F)[C@@H]2CC[C@H]1N2c1nnn[nH]1 (single isomer, unassigned) [47C*]",> 100
3,"C[C@H]1CCN(c2nnn[nH]2)C[C@H](NC(=O)N(C)c2c(F)cc(C3CC3)cc2F)C1 (single isomer, unassigned) [20C*]",10 to 50
4,"C[C@H]1CCN(c2nnn[nH]2)C[C@H](NC(=O)N(C)c2ccc(Cl)nc2)C1 (single isomer, unassigned) [29C*]",50 to 100
5,"C[C@@H]1CCN(c2nnn[nH]2)C[C@@H](NC(=O)N(C)c2c(F)cc(C3CC3)cc2F)C1 (single isomer, unassigned) [20B*]",1 to 10
6,"C[C@H]1C[C@@H](NC(=O)N(C)c2c(F)cc(C3CC3)cc2F)[C@@H]2CC[C@H]1N2c1nnn[nH]1 (single isomer, unassigned) [60C*]",50 to 100
7,"C[C@H]1CCN(c2nnn[nH]2)C[C@H](NC(=O)N(C)c2ccc(OC(F)(F)F)c(F)c2F)C1 (single isomer, unassigned) [26C*]",> 100
8,"C[C@H]1C[C@H](NC(=O)N(C)c2ccc(C(F)F)c(F)c2)[C@@H]2CC[C@H]1N2c1nnn[nH]1 (single isomer, unassigned) [53D*]",> 100
9,"C[C@H]1C[C@@H](NC(=O)N(C)c2c(F)cc(OC(F)(F)F)cc2F)[C@@H]2CC[C@H]1N2c1nnn[nH]1 (single isomer, unassigned) [62C*]",50 to 100
10,"C[C@@H]1C[C@H](NC(=O)N(C)c2c(F)cc(OC(F)F)cc2F)[C@H]2CC[C@@H]1N2c1nnn[nH]1 (single isomer, unassigned) [61B*]",> 100
11,"C[C@@H]1CCN(c2nnn[nH]2)C[C@@H](NC(=O)N(C)c2ccc(C(F)(F)F)cc2F)C1 (single isomer, unassigned) [13B*]",1 to 10
12,"C[C@H]1C[C@H](NC(=O)N(C)c2ccc(OC(F)(F)F)c(F)c2F)[C@@H]2CC[C@H]1N2c1nnn[nH]1 (single isomer, unassigned) [59D*]",10 to 50
13,"C[C@H]1C[C@H](NC(=O)N(C)c2ccc(OC(F)(F)F)c(OC(F)F)c2)[C@@H]2CC[C@H]1N2c1nnn[nH]1 (single isomer, unassigned) [63D*]",50 to 100
14,"C[C@@H]1CCN(c2nnn[nH]2)C[C@@H](NC(=O)N(C)c2cnc(C(F)(F)F)cn2)C1 (single isomer, unassigned) [32B*]",50 to 100
15,"C[C@H]1C[C@H](NC(=O)N(C)c2ccc(C3CC3)cc2)[C@@H]2CC[C@H]1N2c1nnn[nH]1 (single isomer, unassigned) [46D*]",10 to 50
16,"C[C@H]1C[C@H](NC(=O)N(C)c2ccc(OC(F)F)c(OC(F)F)c2)[C@@H]2CC[C@H]1N2c1nnn[nH]1 (single isomer, unassigned) [64D*]",1 to 10
17,"C[C@H]1CCN(c2nnn[nH]2)C[C@@H](NC(=O)N(C)c2ccc(OC(F)F)cc2)C1 (single isomer, unassigned) [11D*]",1 to 10
18,"C[C@@H]1C[C@H](NC(=O)N(C)c2ccc(OC(F)(F)F)c(F)c2F)[C@H]2CC[C@@H]1N2c1nnn[nH]1 (single isomer, unassigned) [59B*]",50 to 100
19,"C[C@@H]1CCN(c2nnn[nH]2)C[C@@H](NC(=O)N(C)c2ccc(Cl)cc2Cl)C1 (single isomer, unassigned) [7B*]",1 to 10
20,"C[C@H]1CCN(c2nnn[nH]2)C[C@H](NC(=O)N(C)c2c(F)cc(OC(F)F)cc2F)C1 (single isomer, unassigned) [19C*]",> 100
